Our source for the GI50, EC50 and IC50 values is US9561228B2 (Celgene Avilomics Research, Inc., priority 2013, dated 2017).

Test [1] deals with A375 cells (malignant melanoma). The test can be described thus: Inhibition of cancer cell proliferation, A375 (CellTiterGlo, 72 hours). In kind it is cell-based. To be noted: Homo sapiens, A-375. How it is done: Measurement of Inhibition of Cancer Cell Proliferation (A375/Malignant Melanoma)
The following protocol used an A375 cell line, which cell line is a model for malignant melanoma. A375 cells were split and 3000 cells in […] of growth medium were added per well of a flat-bottom 96-well plate. A two-fold test compound solution in serum-free DMEM was made, starting at 5,000 nM. Then, 3-fold serial dilutions were made across the plate from well 1 to well 11. Well 12, the last well in a row on the plate, was left as untreated control. 100 μl compound solutions were then transferred to the wells, so the total volume of media was 200 μl per well. Plates were returned to a 37° C. incubator, and the cells were cultured for 72 hours. To measure cell proliferation after 72 hours, media was discarded from the plates, 50 μl/well of fresh medium was added, and 50 μl CellTiterGlo solution was added (Promega Cat#G7573). The plate was covered with a dark lid and incubated for 10 min. A white sealing tape was applied to the bottom of the plate, and the plate was read in a luminescence plate reader. […] 50 μl CellTiterGlo was added per well, and the plate was read in a luminescence plate reader after 10 min. The reading was plotted vs. cell number to generate a standard curve and the equation of the curve fit. The compound-treated sample luminescence readings were converted to cell numbers using the curve-fit equation. The percent of inhibition, using untreated control as 100% growth, was then calculated. GI50 was then calculated by GraphPad Prism.

Test [2] has as its system ERK1/2 phosphorylation of p90RSK in HT29 cells. The experiment in a line: pRSK MSD Assay in HT29 cells. It counts as cell-based. To be noted: Homo sapiens, HT-29, read-out: ERK1/ERK2 PRSK MSD HT29 EC50. A digest of the protocol: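 Serum-starved HT29 cells (0.1% FBS overnight) treated with test compound for 120 min at 37° C, then lysed with protease and phosphatase inhibitors. Phospho-p90RSK quantified by MSD sandwich immunoassay: RSK capture antibody, phospho-RSK detection antibody plus Sulfo-tagged antibody, electrochemiluminescence read.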

The subject of test [3] is HT-29 cells (colorectal adenocarcinoma). The test can be described thus: Inhibition of cancer cell proliferation, HT-29 (CellTiterGlo, 72 hours). It counts as cell-based. To be noted: Homo sapiens. A digest of the protocol:
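HT-29 cells seeded at 3000/well, then treated with 3-fold serial dilutions from a 5,000 nM two-fold solution in serum-free RPMI1640, untreated wells as control, for 72 h at 37° C. CellTiterGlo luminescence converted to cell number via a standard curve; GI50 from percent inhibition versus untreated growth.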

The target of the next test is T1, MEK1 activated ERK1 (Homo sapiens, UniProt P27361).
T1 construct: purchased Millipore (Billerica, Mass.) 14-439-K
The test can be described thus: Omnia continuous-read kinase assay for potency against MEK1 activated ERK1. It counts as biochemical. To be noted: MEK1 activated ERK1, ATP at KM; read-out: ERK1 Omnia WT ATP KM IC50. A digest of the protocol:
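Apparent IC50 came from initial reaction slopes (RFU vs time) plotted against log inhibitor with a variable-slope fit. Reactions were started with ERK1 (4 nM final) added to 50 μM ATP, roughly at its appKM, and 10 μM Sox-conjugated ST17 peptide in 20 mM Tris pH 7.5, 5 mM MgCl2. Fluorescence was monitored every 71 seconds.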

Bounds are passed on as bounds.

T1 sequence (P27361 whole entry): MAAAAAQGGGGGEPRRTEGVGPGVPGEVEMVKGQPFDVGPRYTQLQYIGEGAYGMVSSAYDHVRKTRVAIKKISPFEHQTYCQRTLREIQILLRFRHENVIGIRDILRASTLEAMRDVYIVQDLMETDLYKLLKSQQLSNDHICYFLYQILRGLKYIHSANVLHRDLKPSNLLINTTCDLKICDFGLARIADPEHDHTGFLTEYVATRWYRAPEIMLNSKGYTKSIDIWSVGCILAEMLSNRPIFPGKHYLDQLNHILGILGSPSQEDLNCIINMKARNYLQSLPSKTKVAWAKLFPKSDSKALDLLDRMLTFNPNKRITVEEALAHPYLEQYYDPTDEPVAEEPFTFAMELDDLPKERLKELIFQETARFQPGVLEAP

As to `O=C(CCCl)Nc1ccccc1Nc1nc(N[C@H]2CCCN(C(=O)CO)C2)ncc1C(F)(F)F` [Compound I-22, (S)-3-Chloro-N-(2-((2-((1-(2-hydroxyacetyl)piperidin-3-yl)amino)-5-(trifluoromethyl)pyrimidin-4-yl)amino)phenyl)propanamide], the GI50 in test [1] was in the range of 0.101 to 0.5 µM; in test [3], 0.501 to 0.999 µM. Further, the EC50 in test [2] is over 1 µM. In addition, the IC50 on MEK1 activated ERK1 was 0.101 to 0.5 µM.

In the case of `C=CC(=O)Nc1cc(C)ccc1Nc1nc(NC2CCC(=O)CC2)ncc1C(F)(F)F` [Compound I-38, N-(5-Methyl-2-((2-((4-oxocyclohexyl)amino)-5-(trifluoromethyl)pyrimidin-4-yl)amino)phenyl)acrylamide], the results for the GI50 in test [1] and in test [3] were 0.101 to 0.5 µM and 0.501 to 0.999 µM, respectively. Also, the EC50 in test [2] is over 1 µM.

For the compound `C=CC(=O)Nc1cc(C)ccc1Nc1nc(N[C@H]2CCCN(C(=O)CN)C2)ncc1C(F)(F)F` [Compound I-42, (S)—N-(2-((2-((1-(2-Aminoacetyl)piperidin-3-yl)amino)-5-(trifluoromethyl)pyrimidin-4-yl)amino)-5-methylphenyl)acrylamide], the GI50 in test [1] and in test [3] was over 1 µM throughout. Further, the EC50 in test [2] lay within 0.101 to 0.5 µM.

In the case of `C=C(C)S(=O)(=O)Nc1ccccc1Nc1nc(N[C@H]2CCCN(C(=O)CO)C2)ncc1C(F)(F)F` [Compound I-46, (S)—N-(2-((2-((1-(2-Hydroxyacetyl)piperidin-3-yl)amino)-5-(trifluoromethyl)pyrimidin-4-yl)amino)phenyl)prop-1-ene-2-sulfonamide], the GI50 in test [1] and in test [3] was 0.501 to 0.999 µM throughout. For the same compound, the EC50 in test [2] fell in the range of 0.501 to 0.999 µM.

`C=C(C)S(=O)(=O)Nc1cc(C)ccc1Nc1nc(N[C@H]2CCCN(C(=O)CO)C2)ncc1C(F)(F)F` [Compound I-47, (S)—N-(2-((2-((1-(2-Hydroxyacetyl)piperidin-3-yl)amino)-5-(trifluoromethyl)pyrimidin-4-yl)amino)-5-methylphenyl)prop-1-ene-2-sulfonamide]: the GI50 was under 0.1 µM in test [1] and 0.101 to 0.5 µM in test [3]. Further, in test [2], the EC50 was 0.101 to 0.5 µM.

For `C=CC(=O)Nc1ccccc1Nc1nc(Nc2cc(C(N)=O)ccc2OC)ncc1C(F)(F)F` [Compound I-70, 3-((4-((2-Acrylamidophenyl)amino)-5-(trifluoromethyl)pyrimidin-2-yl)amino)-4-methoxybenzamide], the GI50 in test [1] and in test [3] was under 0.1 µM each time. In test [2], the EC50 was under 0.1 µM.

For the compound `C=CC(=O)Nc1cc(C)ccc1Nc1nc(Nc2cc(C(N)=O)ccc2C)ncc1C(F)(F)F` [Compound I-79, 3-((4-((2-Acrylamido-4-methylphenyl)amino)-5-(trifluoromethyl)pyrimidin-2-yl)amino)-4-methylbenzamide], the GI50 in test [1] and in test [3] was under 0.1 µM each time. For the same compound, the EC50 in test [2] was under 0.1 µM. Further, the IC50 on MEK1 activated ERK1 was in the range of 0.101 to 0.5 µM.

Turning to `C=CC(=O)Nc1ccccc1Nc1nc(Nc2cc(C(=O)NC)c(F)cc2C)ncc1C(F)(F)F` [Compound I-80, 5-((4-((2-Acrylamidophenyl)amino)-5-(trifluoromethyl)pyrimidin-2-yl)amino)-2-fluoro-N,4-dimethylbenzamide], the GI50 in test [1] is 0.101 to 0.5 µM; in test [3], under 0.1 µM. The EC50 in test [2] was in the range of 0.101 to 0.5 µM. Moreover, the IC50 at MEK1 activated ERK1 was in the range of 0.101 to 0.5 µM.

As to `C=CC(=O)Nc1ccccc1Nc1nc(Nc2cc(C(=O)NCCO)c(F)cc2C)ncc1C(F)(F)F` [Compound I-81, 5-((4-((2-Acrylamidophenyl)amino)-5-(trifluoromethyl)pyrimidin-2-yl)amino)-2-fluoro-N-(2-hydroxyethyl)-4-methylbenzamide], the GI50 in test [1] and in test [3] was under 0.1 µM each time. In addition, the EC50 in test [2] lay within 0.101 to 0.5 µM. In addition, the IC50 at MEK1 activated ERK1 lay in the range of 0.101 to 0.5 µM.

On to `C=CC(=O)Nc1ccccc1Nc1nc(N[C@H]2CCCN(C(=O)CC)C2)ncc1Cl` [Compound I-131, (S)—N-(2-((5-chloro-2-((1-propionylpiperidin-3-yl)amino)pyrimidin-4-yl)amino)phenyl)acrylamide], for which the GI50 in test [1] and in test [3] was under 0.1 µM throughout. The EC50 in test [2] was under 0.1 µM.

Consider `C=CC(=O)Nc1ccccc1Nc1nc(N[C@H]2CCCN(C(=O)[C@@H](C)O)C2)ncc1Cl` [Compound I-134, N-(2-((5-chloro-2-(((S)-1-((R)-2-hydroxypropanoyl)piperidin-3-yl)amino)pyrimidin-4-yl)amino)phenyl)acrylamide], for which the GI50 in test [1] and in test [3] was under 0.1 µM throughout. Moreover, the EC50 in test [2] fell in the range of 0.101 to 0.5 µM.

With `C=CC(=O)Nc1ccccc1Nc1nc(Nc2cc(C(=O)NOC)ccc2C)ncc1Cl` [Compound I-191, 3-((4-((2-acrylamidophenyl)amino)-5-chloropyrimidin-2-yl)amino)-N-methoxy-4-methylbenzamide], the GI50 in test [1] and in test [3] was under 0.1 µM throughout. For the same compound, the EC50 in test [2] was in the range of 0.101 to 0.5 µM.

As to `C=CC(=O)Nc1cc(C)ccc1Nc1nc(Nc2cc(C(N)=O)ccc2C)ncc1Cl` [Compound I-229, 3-((4-((2-acrylamido-4-methylphenyl)amino)-5-chloropyrimidin-2-yl)amino)-4-methylbenzamide], the GI50 in test [1] and in test [3] was under 0.1 µM each time. In addition, the EC50 in test [2] lay in the range of 0.101 to 0.5 µM.

Turning to `CN(C)CCC(=O)Nc1ccccc1Nc1nc(N[C@H]2CCCN(C(=O)CO)C2)ncc1C(F)(F)F` [Compound I-276, (S)-3-(dimethylamino)-N-(2-((2-((1-(2-hydroxyacetyl)piperidin-3-yl)amino)-5-(trifluoromethyl)pyrimidin-4-yl)amino)phenyl)propanamide], the GI50 in test [1] is over 1 µM; in test [3], 0.101 to 0.5 µM. Moreover, the EC50 in test [2] is over 1 µM.

For the compound `NC(=O)c1ccccc1Nc1nc(N[C@H]2CCCN(C(=O)CO)C2)ncc1C(F)(F)F` [Compound I-307, (S)-2-((2-((1-(2-hydroxyacetyl)piperidin-3-yl)amino)-5-(trifluoromethyl)pyrimidin-4-yl)amino)benzamide], the GI50 in test [1] is under 0.1 µM; in test [3] it was 0.101 to 0.5 µM. Also, the EC50 in test [2] was over 1 µM.

Take `CC(C)S(=O)(=O)c1ccccc1Nc1nc(N[C@H]2CCCN(C(=O)CO)C2)ncc1C(F)(F)F` [Compound I-310, (S)-2-hydroxy-1-(3-((4-((2-(isopropylsulfonyl)phenyl)amino)-5-(trifluoromethyl)pyrimidin-2-yl)amino)piperidin-1-yl)ethanone]: the GI50 in test [1] and in test [3] was under 0.1 µM in each case. The EC50 in test [2] lay in the range of 0.501 to 0.999 µM.

Regarding `CCC(=O)Nc1ccccc1Nc1nc(N[C@H]2CCCN(C(C)=O)C2)ncc1C(F)(F)F` [Compound I-317, (S)—N-(2-((2-((1-acetylpiperidin-3-yl)amino)-5-(trifluoromethyl)pyrimidin-4-yl)amino)phenyl)propionamide], the GI50 in test [1] and in test [3] was under 0.1 µM in each case. Further, the EC50 in test [2] was over 1 µM.

For `CCC(=O)Nc1ccccc1Nc1nc(N[C@H]2CCCN(C(=O)CO)C2)ncc1C(F)(F)F` [Compound I-318, (S)—N-(2-((2-((1-(2-hydroxyacetyl)piperidin-3-yl)amino)-5-(trifluoromethyl)pyrimidin-4-yl)amino)phenyl)propionamide], the GI50 was under 0.1 µM in test [1] and 0.101 to 0.5 µM in test [3]. In test [2], the EC50 lay within 0.501 to 0.999 µM.
